Measurements: patent US10793568B2, “Hormone receptor modulators for treating metabolic conditions and disorders” (ARDELYX, INC., priority 2016, dated 2020)

Experiments:
[1] = target: ligand binding domain of human FXR (Homo sapiens (Human), UniProt Q96RI1); assay: FXR ligand binding assay (LanthaScreen TR-FRET, SRC2-2 peptide recruitment); conditions: for Emax / % Efficacy: extent of activation relative to GW4064; for Emax: read-out: % Efficacy
[2] = target: human Farnesoid X receptor ligand-binding domain/Gal4 DNA binding domain chimera (Homo sapiens (Human), UniProt Q96RI1); assay: Cell-based assay of FXR activation (FXR-UAS-bla HEK 293T beta-lactamase reporter); conditions: cellular FXR beta-lactamase reporter assay; for Emax: HEK-293T, read-out: % Efficacy; for Emax / % Efficacy: extent of activation relative to GW4064; for EC50 / pEC50: FXR-UAS-bla HEK 293T cells, 16 h, pEC50 = -log EC50
human Farnesoid X receptor ligand-binding domain/Gal4 DNA binding domain chimera, sequence (Q96RI1 262-486, change not shown): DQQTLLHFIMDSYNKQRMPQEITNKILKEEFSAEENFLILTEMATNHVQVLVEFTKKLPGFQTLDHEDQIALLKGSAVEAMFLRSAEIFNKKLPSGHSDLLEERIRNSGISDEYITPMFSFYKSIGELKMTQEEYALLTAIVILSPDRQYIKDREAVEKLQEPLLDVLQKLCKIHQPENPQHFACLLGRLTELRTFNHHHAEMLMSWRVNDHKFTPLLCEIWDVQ
human Farnesoid X receptor ligand-binding domain/Gal4 DNA binding domain chimera, sequence (P04386 1-147 partner): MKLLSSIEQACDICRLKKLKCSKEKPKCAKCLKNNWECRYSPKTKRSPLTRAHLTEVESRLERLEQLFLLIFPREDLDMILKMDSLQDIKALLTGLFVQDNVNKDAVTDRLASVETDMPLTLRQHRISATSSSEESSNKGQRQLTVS
Summary of the method: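 HEK 293T cells stably expressing a Gal4-fused human FXR LBD and a UAS-driven beta-lactamase reporter were incubated with serially diluted compounds for 16 h at 37 °C in phenol red-free DMEM with 2% charcoal-stripped FBS. CCF4 FRET read-out: excitation 409 nm, emission 447 nm. pEC50 comes from a 3-parameter logistic fit, and efficacy is given as % of GW4064.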

[3] = -log EC50, concentration required to produce 50% activation

ligand binding domain of human FXR, sequence (Q96RI1 262-486): as the sequence (Q96RI1 262-486, change not shown) above

% Efficacy [1] [%] | pEC50 [2] | % Efficacy [2] [%] | EC50 [1, 3] [nM] | Compound | pEC50 [1, 3] | Emax [1] [%] | Emax [2] [%] | EC50 [2] [nM]
 |  |  |  | O=C(NS(=O)(=O)C1CCOCC1)c1ccc(N2C(=O)[C@@H]3C[C@H]2C[C@H]3OCc2c(-c3c(Cl)cccc3Cl)noc2C2CC2)cc1 [Compound I-338] | 8.9 | 158 | 106 | 15.8
 |  |  |  | O=C(NCCS(=O)(=O)O)c1ccc(N2C[C@@H]3C[C@H]2C[C@H]3OCc2c(-c3c(Cl)cccc3Cl)noc2C2CC2)cc1 [Compound I-166, 2-({4-[(1S,4S,5R)-5-{[5-cyclopropyl-3-(2,6-dichlorophenyl)-1,2-oxazol-4-yl]methoxy}-2-azabicyclo[2.2.1]heptan-2-yl]phenyl}formamido)ethane-1-sulfonic Acid] | 8.7 | 154 | 114 | 50.1
 |  |  |  | Cc1cccc(Cl)c1-c1noc(C2CC2)c1CO[C@@H]1C[C@@H]2C[C@H]1C(=O)N2c1ccc(C(=O)O)cc1 [Compound I-309, 4-[(1S,4R,5R)-5-{[3-(2-chloro-6-methylphenyl)-5-cyclopropyl-1,2-oxazol-4-yl]methoxy}-3-oxo-2-azabicyclo[2.2.1]heptan-2-yl]benzoic Acid] | 8.2 | 157 | 104 | 1.58
 |  |  |  | O=C(NS(=O)(=O)C1CC1)c1ccc(N2C[C@@H]3C[C@H]2C[C@H]3OCc2c(-c3c(Cl)cccc3Cl)noc2C2CC2)nc1 [Compound I-205, 6-((1S,4S,5R)-5-((5-cyclopropyl-3-(2,6-dichlorophenyl)isoxazol-4-yl)methoxy)-2-azabicyclo[2.2.1]heptan-2-yl)-N-(cyclopropylsulfonyl)nicotinamide] | 8.4 | 142 | 104 | 10
 |  |  |  | CC(CC(=O)O)c1ccc(N2C[C@@H]3C[C@H]2C[C@H]3OCc2c(-c3c(Cl)cccc3Cl)noc2C2CC2)c(F)c1 (stereo partly drawn) [Compound I-152, 3-{4-[(1S,4S,5R)-5-{[5-cyclopropyl-3-(2,6-dichlorophenyl)-1,2-oxazol-4-yl]methoxy}-2-azabicyclo[2.2.1]heptan-2-yl]-3-fluorophenyl}butanoic Acid] |  | 132 | 105 | 5.01
 |  |  |  | O=C(O)c1cc(C2CCC2)c2nc(N3C[C@@H]4C[C@H]3C[C@H]4OCc3c(-c4c(Cl)cccc4Cl)noc3C3CC3)sc2c1 [Compound I-249, 4-cyclobutyl-2-[(1S,4S,5R)-5-{[5-cyclopropyl-3-(2,6-dichlorophenyl)-1,2-oxazol-4-yl]methoxy}-2-azabicyclo[2.2.1]heptan-2-yl]-1,3-benzothiazole-6-carboxylic Acid] | 8.4 | 134 | 114 | 0.158
147 | 9.5 | 108 |  | O=C(NS(=O)(=O)[C@H]1CC[C@H](O)CC1)c1ccc(N2C[C@@H]3C[C@H]2C[C@H]3OCc2c(-c3c(Cl)cccc3Cl)noc2C2CC2)cc1 [Compound I-221, 4-[(1S,4S,5R)-5-{[5-cyclopropyl-3-(2,6-dichlorophenyl)-1,2-oxazol-4-yl]methoxy}-2-azabicyclo[2.2.1]heptan-2-yl]-N-{[(1r,4r)-4-hydroxycyclohexyl]sulfonyl}benzamide] | 8.8 |  |  | 
 |  |  |  | Cc1cc(C(=O)O)ccc1N1C(=O)[C@@H]2C[C@H]1C[C@H]2OCc1c(-c2c(Cl)cccc2Cl)noc1C1CC1 [Compound I-317, 4-[(1S,4R,5R)-5-{[5-cyclopropyl-3-(2,6-dichlorophenyl)-1,2-oxazol-4-yl]methoxy}-3-oxo-2-azabicyclo[2.2.1]heptan-2-yl]-3-methylbenzoic Acid] | 6.7 | 131 | 126 | 100
 |  |  |  | O=C(O)c1ccc(N2C[C@@H]3C[C@H]2C[C@H]3OCc2c(-c3c(Cl)cccc3Cl)noc2C2(F)CC2)cc1F [Compound I-122, 4-[(1S,4S,5R)-5-{[3-(2,6-dichlorophenyl)-5-(1-fluorocyclopropyl)-1,2-oxazol-4-yl]methoxy}-2-azabicyclo[2.2.1]heptan-2-yl]-2-fluorobenzoic Acid] | 9.6 | 137 | 102 | 1.58
 |  |  |  | O=C(O)c1cc(OCC(F)(F)F)c2nc(N3C[C@@H]4C[C@H]3C[C@H]4OC(=O)c3c(-c4c(Cl)cccc4Cl)noc3C3CC3)sc2c1 [Compound I-7, 2-[(1S,4S,5R)-5-[5-cyclopropyl-3-(2,6-dichlorophenyl)-1,2-oxazole-4-carbonyloxy]-2-azabicyclo[2.2.1]heptan-2-yl]-4-(2,2,2-trifluoroethoxy)-1,3-benzothiazole-6-carboxylic acid] | 7.4 | 162 | 119 | 5.01
 |  |  |  | O=C(O)c1cc(C2CCC2)c2nc(N3C[C@H]4C[C@@H]3C[C@@H]4OCc3c(-c4c(Cl)cccc4Cl)noc3C3CC3)sc2c1 [Compound I-284, 4-cyclobutyl-2-[(1R,4R,5S)-5-{[5-cyclopropyl-3-(2,6-dichlorophenyl)-1,2-oxazol-4-yl]methoxy}-2-azabicyclo[2.2.1]heptan-2-yl]-1,3-benzothiazole-6-carboxylic Acid] | 9 | 116 | 100 | 3.16
 |  |  |  | N#Cc1cc(CCC(=O)O)ccc1N1C[C@@H]2C[C@H]1C[C@H]2OCc1c(-c2c(Cl)cccc2Cl)noc1C1CC1 [Compound I-158, 3-{3-cyano-4-[(1S,4S,5R)-5-{[5-cyclopropyl-3-(2,6-dichlorophenyl)-1,2-oxazol-4-yl]methoxy}-2-azabicyclo[2.2.1]heptan-2-yl]phenyl}propanoic Acid] | 7.6 | 126 | 104 | 6.31
 |  |  |  | Cc1cccc(Cl)c1-c1noc(C2CC2)c1CO[C@@H]1C[C@@H]2C[C@H]1CN2c1nc2c(OC3CC3)cc(C(=O)O)cc2s1 [Compound I-270, 2-((1S,4S,5R)-5-((3-(2-chloro-6-methylphenyl)-5-cyclopropylisoxazol-4-yl)methoxy)-2-azabicyclo[2.2.1]heptan-2-yl)-4-cyclopropoxybenzo[d]thiazole-6-carboxylic acid] | 8.7 | 150 | 106 | 0.1
154 | 9.6 | 108 |  | O=C(NS(=O)(=O)[C@H]1CC[C@@H](O)CC1)c1ccc(N2C[C@@H]3C[C@H]2C[C@H]3OCc2c(-c3c(Cl)cccc3Cl)noc2C2CC2)cc1 [Compound I-220, 4-[(1S,4S,5R)-5-{[5-cyclopropyl-3-(2,6-dichlorophenyl)-1,2-oxazol-4-yl]methoxy}-2-azabicyclo[2.2.1]heptan-2-yl]-N-{[(1s,4s)-4-hydroxycyclohexyl]sulfonyl}benzamide] | 8.7 |  |  | 
 |  |  |  | CCCS(=O)(=O)NC(=O)c1ccc(N2C[C@@H]3C[C@H]2C[C@H]3OCc2c(-c3c(Cl)cccc3Cl)noc2C2CC2)cc1F [Compound I-194, 4-((1S,4S,5R)-5-((5-cyclopropyl-3-(2,6-dichlorophenyl)isoxazol-4-yl)methoxy)-2-azabicyclo[2.2.1]heptan-2-yl)-2-fluoro-N-(propylsulfonyl)benzamide] | 9 | 141 | 104 | 0.2
 |  |  | 1.26 | O=C(NS(=O)(=O)C1CCOCC1)c1ccc(N2C[C@@H]3C[C@H]2C[C@H]3OCc2c(-c3c(Cl)cccc3Cl)noc2C2CC2)cc1 [Compound I-182, 4-[(1S,4S,5R)-5-{[5-cyclopropyl-3-(2,6-dichlorophenyl)-1,2-oxazol-4-yl]methoxy}-2-azabicyclo[2.2.1]heptan-2-yl]-N-(oxane-4-sulfonyl)benzamide] |  | 156 | 106 | 0.158
 |  |  |  | O=C(O)C1CCc2cc(N3C(=O)[C@@H]4C[C@H]3C[C@H]4OCc3c(-c4c(Cl)cccc4Cl)noc3C3CC3)ccc21 (stereo partly drawn) [Compound I-312, 5-[(1S,4R,5R)-5-{[5-cyclopropyl-3-(2,6-dichlorophenyl)-1,2-oxazol-4-yl]methoxy}-3-oxo-2-azabicyclo[2.2.1]heptan-2-yl]-2,3-dihydro-1H-indene-1-carboxylic Acid] | 7 | 149 | 134 | 20
 |  |  |  | O=C(NS(=O)(=O)C1CC1)c1ccc(N2C[C@@H]3C[C@H]2C[C@H]3OCc2c(-c3c(Cl)cccc3Cl)noc2C2(F)CC2)cc1 [Compound I-196, N-(cyclopropylsulfonyl)-4-((1S,4S,5R)-5-((3-(2,6-dichlorophenyl)-5-(1-fluorocyclopropyl)isoxazol-4-yl)methoxy)-2-azabicyclo[2.2.1]heptan-2-yl)benzamide] | 8.5 | 154 | 110 | 0.794
 |  |  |  | Cc1cccc(Cl)c1-c1noc(C2CC2)c1CO[C@@H]1C[C@@H]2C[C@H]1CN2c1ccc(C(=O)O)c(F)c1 [Compound I-115, 4-[(1S,4S,5R)-5-{[3-(2-chloro-6-methylphenyl)-5-cyclopropyl-1,2-oxazol-4-yl]methoxy}-2-azabicyclo[2.2.1]heptan-2-yl]-2-fluorobenzoic Acid] | 9.6 | 144 | 108 | 2
 |  |  |  | O=C(NS(=O)(=O)CCC(O)CO)c1ccc(N2C[C@@H]3C[C@H]2C[C@H]3OCc2c(-c3c(Cl)cccc3Cl)noc2C2CC2)cc1 (stereo partly drawn) [Compound I-219, 4-[(1S,4S,5R)-5-{[5-cyclopropyl-3-(2,6-dichlorophenyl)-1,2-oxazol-4-yl]methoxy}-2-azabicyclo[2.2.1]heptan-2-yl]-N-(3,4-dihydroxybutanesulfonyl)benzamide] | 8.6 | 144 | 104 | 39.8
